Read-outs that look alike come from different tables or passages of the source.
Tested on: recombinant NL-RLuc virus (HIV NL4-3 with Renilla Luciferase) in MT-2 cells
Assay: Inhibition of HIV replication (NL-RLuc virus in MT-2 cells, luciferase readout)
Type: cell-based
Description: Inhibition of HIV Replication:
A recombinant NL-RLuc proviral clone was constructed in which a section of the nef gene from NL4-3 was replaced with the Renilla Luciferase gene. This virus is fully infectious and can undergo multiple cycles of replication in cell culture. In addition, the luciferous reporter provides a simple and easy method for quantitating the extent of virus growth and consequently, the antiviral activity of test compounds. The plasmid pNLRLuc contains the proviral NL-Rluc DNA cloned into pUC18 at the PvuII site. The NL-RLuc virus was prepared by transfection of 293T cells with the plasmid pNLRLuc. Transfections were performed using the LipofectAMINE PLUS kit from Invitrogen (Carlsbad, Calif.) according to the manufacturer and the virus generated was titered in MT-2 cells. For susceptibility analyses, the titrated virus was used to infect MT-2 cells in the presence of compound, and after 5 days of incubation, cells were processed and quantitated for virus growth by the amount of expressed luciferase. Assay media was RPMI 1640 supplemented with 10% heat inactivated fetal bovine serum (FBS), 100 units/ml penicillin G/100 units/ml streptomycin, 10 mM HEPES buffer pH 7.55 and 2 mM L-glutamine. The results from at least 2 experiments were used to calculate the EC50 values. Luciferase was quantitated using the Dual Luciferase kit from Promega (Madison, Wis.). Susceptibility of viruses to compounds was determined by incubation in the presence of serial dilutions of the compound. The 50% effective concentration (EC50) was calculated by using the exponential form of the median effect equation where (Fa)=1/[1+(ED50/drug conc.)^m] (Johnson V A, Byington R T. Infectivity Assay. In Techniques in HIV Research. ed. Aldovini A, Walker B D. 71-76. New York: Stockton Press. 1990). Activity equal to A refers to a compound having an EC50≤100 nM, while B and C denote compounds having an EC50 between 100 nM and 1 uM (B) or >1 uM (C).

| SMILES | EC50 (MT2, 120 h, read-out: Activity) [µM] | EC50 (MT2, 120 h, read-out: EC50 μM) [µM] | EC50 ({}) [µM] |
| --- | --- | --- | --- |
| Cc1nc(C)c([C@H](OC(C)(C)C)C(=O)O)c(N2CCC(C)(C)CC2)c1-c1ccc(OCCN2CCN(C)CC2)cc1 [Example 1, (S)-2-(tert-Butoxy)-2-(4-(4,4-dimethylpiperidin-1-yl)-2,6-dimethyl-5-(4-(2-(4-methylpiperazin-1-yl)ethoxy)phenyl)pyridin-3-yl)acetic Acid] | 0.1 to 1 | 0.117 | – |
| Cc1nc(C)c([C@H](OC(C)(C)C)C(=O)O)c(N2CCC(C)(C)CC2)c1-c1ccc(OCCC2CCCCC2)cc1 [Example 2, (S)-2-(tert-Butoxy)-2-(5-(4-(2-cyclohexylethoxy)phenyl)-4-(4,4-dimethylpiperidin-1-yl)-2,6-dimethylpyridin-3-yl)acetic Acid] | < 0.1 | 0.034 | – |
| Cc1nc(C)c([C@H](OC(C)(C)C)C(=O)O)c(N2CCC(C)(C)CC2)c1-c1ccc(OC2CCOc3ccccc32)cc1 (stereo partly drawn) [Example 3, (2S)-2-(tert-Butoxy)-2-(5-(4-(chroman-4-yloxy)phenyl)-4-(4,4-dimethylpiperidin-1-yl)-2,6-dimethylpyridin-3-yl)acetic Acid] | < 0.1 | – | – |
| Cc1nc(C)c([C@H](OC(C)(C)C)C(=O)O)c(N2CCC(C)(C)CC2)c1-c1ccc(OCCN2CCCCC2)cc1 [Example 4, (S)-2-(tert-Butoxy)-2-(4-(4,4-dimethylpiperidin-1-yl)-2,6-dimethyl-5-(4-(2-(piperidin-1-yl)ethoxy)phenyl)pyridin-3-yl)acetic Acid] | < 0.1 | – | – |
| Cc1nc(C)c([C@H](OC(C)(C)C)C(=O)O)c(N2CCC(C)(C)CC2)c1-c1ccc(OCCN2CCOCC2)cc1 [Example 5, (S)-2-(tert-Butoxy)-2-(4-(4,4-dimethylpiperidin-1-yl)-2,6-dimethyl-5-(4-(2-morpholinoethoxy)phenyl)pyridin-3-yl)acetic Acid] | < 0.1 | 0.021 | – |
| COc1cccc(C2CCN(CCOc3ccc(-c4c(C)nc(C)c([C@H](OC(C)(C)C)C(=O)O)c4N4CCC(C)(C)CC4)cc3)CC2)c1 [Example 6, (S)-2-(tert-Butoxy)-2-(4-(4,4-dimethylpiperidin-1-yl)-5-(4-(2-(4-(3-methoxyphenyl)piperidin-1-yl)ethoxy)phenyl)-2,6-dimethylpyridin-3-yl)acetic Acid] | < 0.1 | – | – |
| Cc1nc(C)c([C@H](OC(C)(C)C)C(=O)O)c(N2CCC(C)(C)CC2)c1-c1ccc(OCCN2CCC(C)CC2)cc1 [Example 7, (S)-2-(tert-Butoxy)-2-(4-(4,4-dimethylpiperidin-1-yl)-2,6-dimethyl-5-(4-(2-(4-methylpiperidin-1-yl)ethoxy)phenyl)pyridin-3-yl)acetic Acid] | < 0.1 | – | – |
| Cc1nc(C)c([C@H](OC(C)(C)C)C(=O)O)c(N2CCC(C)(C)CC2)c1-c1ccc(OCC2CCC(C)CC2)cc1 (stereo partly drawn) [Example 8, (S)-2-(tert-Butoxy)-2-(4-(4,4-dimethylpiperidin-1-yl)-2,6-dimethyl-5-(4-((4-methylcyclohexyl)methoxy)phenyl)pyridin-3-yl)acetic Acid] | < 0.1 | – | – |
| Cc1nc(C)c([C@H](OC(C)(C)C)C(=O)O)c(N2CCC(C)(C)CC2)c1-c1ccc(OCC2CCC(C)CC2)cc1 (stereo partly drawn) [Example 9, (S)-2-(tert-Butoxy)-2-(4-(4,4-dimethylpiperidin-1-yl)-2,6-dimethyl-5-(4-((4-methylcyclohexyl)methoxy)phenyl)pyridin-3-yl)acetic Acid] | – | – | < 0.1 |
| Cc1nc(C)c([C@H](OC(C)(C)C)C(=O)O)c(N2CCC(C)(C)CC2)c1-c1ccc(OCCN2CCN(Cc3ccc(F)cc3)CC2)cc1 [Example 10, (S)-2-(tert-Butoxy)-2-(4-(4,4-dimethylpiperidin-1-yl)-5-(4-(2-(4-(4-fluorobenzyl)piperazin-1-yl)ethoxy)phenyl)-2,6-dimethylpyridin-3-yl)acetic Acid] | < 0.1 | – | – |
| Cc1nc(C)c([C@H](OC(C)(C)C)C(=O)O)c(N2CCC(C)(C)CC2)c1-c1ccc(OCC2(c3ccc(F)cc3)CC2)cc1 [Example 11] | < 0.1 | 0.003 | – |
| Cc1nc(C)c([C@H](OC(C)(C)C)C(=O)O)c(N2CCC(C)(C)CC2)c1-c1ccc(OC2Cc3ccccc3C2)cc1 [Example 12, (S)-2-(tert-Butoxy)-2-(5-(4-((2,3-dihydro-1H-inden-2-yl)oxy)phenyl)-4-(4,4-dimethylpiperidin-1-yl)-2,6-dimethylpyridin-3-yl)acetic Acid] | < 0.1 | – | – |
| Cc1nc(C)c([C@H](OC(C)(C)C)C(=O)O)c(N2CCC(C)(C)CC2)c1-c1ccc(OCCN2CCSCC2)cc1 [Example 13, (S)-2-(tert-Butoxy)-2-(4-(4,4-dimethylpiperidin-1-yl)-2,6-dimethyl-5-(4-(2-thiomorpholinoethoxy)phenyl)pyridin-3-yl)acetic Acid] | < 0.1 | 0.003 | – |
| Cc1nc(C)c([C@H](OC(C)(C)C)C(=O)O)c(N2CCC(C)(C)CC2)c1-c1ccc(OCCN2CCS(=O)(=O)CC2)cc1 [Example 14, (S)-2-(tert-Butoxy)-2-(4-(4,4-dimethylpiperidin-1-yl)-5-(4-(2-(1,1-dioxidothiomorpholino)ethoxy)phenyl)-2,6-dimethylpyridin-3-yl)acetic Acid] | < 0.1 | – | – |
| Cc1nc(C)c([C@H](OC(C)(C)C)C(=O)O)c(N2CCC(C)(C)CC2)c1-c1ccc(OC2CC(c3ccc(F)cc3)C2)cc1 (stereo partly drawn) [Example 15, (S)-2-(tert-Butoxy)-2-(4-(4,4-dimethylpiperidin-1-yl)-5-(4-(3-(4-fluorophenyl)cyclobutoxy)phenyl)-2,6-dimethylpyridin-3-yl)acetic Acid] | < 0.1 | – | – |
| Cc1nc(C)c([C@H](OC(C)(C)C)C(=O)O)c(N2CCC(C)(C)CC2)c1-c1ccc(OC2CCC(c3ccc(F)cc3)CC2)cc1 (stereo partly drawn) [Example 16, (S)-2-(tert-Butoxy)-2-(4-(4,4-dimethylpiperidin-1-yl)-5-(4-((4-(4-fluorophenyl)cyclohexyl)oxy)phenyl)-2,6-dimethylpyridin-3-yl)acetic Acid] | < 0.1 | – | – |
| Cc1nc(C)c([C@H](OC(C)(C)C)C(=O)O)c(N2CCC(C)(C)CC2)c1-c1ccc(OC2CCCC2c2ccc(F)cc2)cc1 (stereo partly drawn) [Example 17, (2S)-2-(tert-Butoxy)-2-(4-(4,4-dimethylpiperidin-1-yl)-5-(4-((2-(4-fluorophenyl)cyclopentyl)oxy)phenyl)-2,6-dimethylpyridin-3-yl)acetic acid] | < 0.1 | 0.012 | – |
| Cc1nc(C)c([C@H](OC(C)(C)C)C(=O)O)c(N2CCC(C)(C)CC2)c1-c1ccc(OC2CCCC2c2ccc(F)cc2)cc1 (stereo partly drawn) [Example 18, (2S)-2-(tert-Butoxy)-2-(4-(4,4-dimethylpiperidin-1-yl)-5-(4-((2-(4-fluorophenyl)cyclopentyl)oxy)phenyl)-2,6-dimethylpyridin-3-yl)acetic acid] | – | – | < 0.1 |
| Cc1nc(C)c([C@H](OC(C)(C)C)C(=O)O)c(N2CCC(C)(C)CC2)c1-c1ccc(OC2COCC2c2ccc(F)cc2)cc1 (stereo partly drawn) [Example 19, (2S)-2-(tert-Butoxy)-2-(4-(4,4-dimethylpiperidin-1-yl)-5-(4-((4-(4-fluorophenyl)tetrahydrofuran-3-yl)oxy)phenyl)-2,6-dimethylpyridin-3-yl)acetic acid] | < 0.1 | – | – |
| Cc1nc(C)c([C@H](OC(C)(C)C)C(=O)O)c(N2CCC(C)(C)CC2)c1-c1ccc(OC2COCC2c2ccc(F)cc2)cc1 (stereo partly drawn) [Example 20, (2S)-2-(tert-Butoxy)-2-(4-(4,4-dimethylpiperidin-1-yl)-5-(4-((4-(4-fluorophenyl)tetrahydrofuran-3-yl)oxy)phenyl)-2,6-dimethylpyridin-3-yl)acetic acid] | – | – | < 0.1 |

— patent publication US10221156B2, “Pyridin-3-yl acetic acid derivatives as inhibitors of human immunodeficiency virus replication” (ViiV HEALTHCARE UK (No. 5) LIMITED, priority 2015, dated 2019)
